In article PMC9234961 (Journal of Medicinal Chemistry, 2022):
Like-named read-outs stand apart in the source and are kept apart here.

Assays:
[1] = target: kinases (468) (Homo sapiens, UniProt Q9UL54); details: kinase TAOK2 (Entrez TAOK2); compound concentration 1000 nM
[2] = target: kinases (468) (Homo sapiens, UniProt Q08881); details: ITK; 1000 nM
[3] = target: kinases (468) (Homo sapiens, UniProt P17948); details: FLT1; 1000 nM
[4] = target: kinases (468) (Mycobacterium tuberculosis, UniProt P9WI81); details: PKNB(M.tuberculosis) (pknB); 1000 nM
[5] = target: kinases (468) (Homo sapiens, UniProt P32298); details: GRK4; 1000 nM
[6] = target: kinases (468) (Homo sapiens, UniProt Q13470); details: kinase TNK1 (Entrez TNK1); compound concentration 1000 nM
[7] = target: kinases (468) (Homo sapiens, UniProt O76039); details: CDKL5; 1000 nM
[8] = target: kinases (468) (Homo sapiens, UniProt Q9H1R3); details: MYLK2; 1000 nM
[9] = target: kinases (468) (Homo sapiens, UniProt Q8N752); details: CSNK1A1L; 1000 nM
[10] = target: kinases (468) (Homo sapiens, UniProt Q8IU85); details: CAMK1D; 1000 nM
[11] = target: kinases (468) (Homo sapiens, UniProt P37023); details: ACVRL1; 1000 nM
[12] = target: kinases (468) (Homo sapiens, UniProt P42336, I800L); details: PIK3CA(I800L); 1000 nM
[13] = target: kinases (468) (Homo sapiens, UniProt Q9Y2U5); details: MAP3K2; 1000 nM
[14] = target: kinases (468) (Homo sapiens, UniProt P42336, C420R); details: PIK3CA(C420R); 1000 nM
[15] = target: kinases (468) (Homo sapiens, UniProt P42338); details: PIK3CB; 1000 nM
kinases (468) (Homo sapiens, UniProt P42338), sequence (P42338 whole entry): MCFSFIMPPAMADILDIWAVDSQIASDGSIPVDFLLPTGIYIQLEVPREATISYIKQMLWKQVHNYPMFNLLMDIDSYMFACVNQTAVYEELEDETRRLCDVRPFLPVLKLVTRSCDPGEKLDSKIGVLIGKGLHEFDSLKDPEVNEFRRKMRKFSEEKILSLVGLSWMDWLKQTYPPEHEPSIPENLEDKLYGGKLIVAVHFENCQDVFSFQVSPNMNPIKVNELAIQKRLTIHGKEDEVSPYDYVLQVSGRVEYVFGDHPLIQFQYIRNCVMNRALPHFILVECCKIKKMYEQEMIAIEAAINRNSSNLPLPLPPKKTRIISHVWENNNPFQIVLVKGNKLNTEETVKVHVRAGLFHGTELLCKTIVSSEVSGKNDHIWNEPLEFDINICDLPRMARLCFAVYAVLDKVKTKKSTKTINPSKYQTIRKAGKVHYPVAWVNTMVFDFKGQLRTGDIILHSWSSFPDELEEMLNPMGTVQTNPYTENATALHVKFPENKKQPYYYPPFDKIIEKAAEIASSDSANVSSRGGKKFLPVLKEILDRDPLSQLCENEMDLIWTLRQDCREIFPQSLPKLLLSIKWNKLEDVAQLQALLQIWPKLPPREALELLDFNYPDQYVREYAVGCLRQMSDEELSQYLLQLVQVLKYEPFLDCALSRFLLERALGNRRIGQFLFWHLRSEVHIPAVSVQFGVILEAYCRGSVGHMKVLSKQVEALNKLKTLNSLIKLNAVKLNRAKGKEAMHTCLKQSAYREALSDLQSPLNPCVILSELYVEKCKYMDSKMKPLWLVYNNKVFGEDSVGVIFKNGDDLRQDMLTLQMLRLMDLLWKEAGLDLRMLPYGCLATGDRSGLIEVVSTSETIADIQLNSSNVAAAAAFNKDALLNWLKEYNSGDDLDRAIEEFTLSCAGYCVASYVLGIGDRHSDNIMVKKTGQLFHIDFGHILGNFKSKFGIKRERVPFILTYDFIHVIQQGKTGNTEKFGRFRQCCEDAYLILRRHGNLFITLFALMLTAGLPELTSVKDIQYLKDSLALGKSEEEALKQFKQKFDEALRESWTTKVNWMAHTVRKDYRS

[16] = target: kinases (468) (Homo sapiens, UniProt Q08345); details: DDR1; 1000 nM
kinases (468) (Homo sapiens, UniProt Q08345), sequence (Q08345 19-913): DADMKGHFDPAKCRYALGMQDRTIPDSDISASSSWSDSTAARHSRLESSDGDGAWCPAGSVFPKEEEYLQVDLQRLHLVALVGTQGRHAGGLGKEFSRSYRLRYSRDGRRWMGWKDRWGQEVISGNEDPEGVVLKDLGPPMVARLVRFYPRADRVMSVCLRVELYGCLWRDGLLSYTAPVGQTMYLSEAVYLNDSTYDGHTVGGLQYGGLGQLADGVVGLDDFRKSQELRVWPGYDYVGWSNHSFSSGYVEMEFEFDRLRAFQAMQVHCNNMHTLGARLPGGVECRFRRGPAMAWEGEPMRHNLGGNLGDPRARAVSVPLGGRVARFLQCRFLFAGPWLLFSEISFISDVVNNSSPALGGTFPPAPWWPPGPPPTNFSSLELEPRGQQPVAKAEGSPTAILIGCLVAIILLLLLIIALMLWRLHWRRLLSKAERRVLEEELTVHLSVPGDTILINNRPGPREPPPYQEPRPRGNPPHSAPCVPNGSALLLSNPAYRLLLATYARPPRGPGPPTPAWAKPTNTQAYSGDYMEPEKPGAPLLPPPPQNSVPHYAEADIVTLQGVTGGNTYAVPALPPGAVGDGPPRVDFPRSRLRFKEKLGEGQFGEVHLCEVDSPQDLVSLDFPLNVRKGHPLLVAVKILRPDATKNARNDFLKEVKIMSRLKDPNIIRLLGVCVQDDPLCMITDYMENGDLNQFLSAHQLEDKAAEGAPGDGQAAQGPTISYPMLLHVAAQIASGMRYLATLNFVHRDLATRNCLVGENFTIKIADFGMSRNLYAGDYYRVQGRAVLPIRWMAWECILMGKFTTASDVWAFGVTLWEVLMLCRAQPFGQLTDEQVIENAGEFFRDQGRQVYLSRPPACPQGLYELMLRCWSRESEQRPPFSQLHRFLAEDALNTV

[17] = target: kinases (468) (Homo sapiens, UniProt O00329); details: PIK3CD; 1000 nM
kinases (468) (Homo sapiens, UniProt O00329), sequence (O00329 whole entry): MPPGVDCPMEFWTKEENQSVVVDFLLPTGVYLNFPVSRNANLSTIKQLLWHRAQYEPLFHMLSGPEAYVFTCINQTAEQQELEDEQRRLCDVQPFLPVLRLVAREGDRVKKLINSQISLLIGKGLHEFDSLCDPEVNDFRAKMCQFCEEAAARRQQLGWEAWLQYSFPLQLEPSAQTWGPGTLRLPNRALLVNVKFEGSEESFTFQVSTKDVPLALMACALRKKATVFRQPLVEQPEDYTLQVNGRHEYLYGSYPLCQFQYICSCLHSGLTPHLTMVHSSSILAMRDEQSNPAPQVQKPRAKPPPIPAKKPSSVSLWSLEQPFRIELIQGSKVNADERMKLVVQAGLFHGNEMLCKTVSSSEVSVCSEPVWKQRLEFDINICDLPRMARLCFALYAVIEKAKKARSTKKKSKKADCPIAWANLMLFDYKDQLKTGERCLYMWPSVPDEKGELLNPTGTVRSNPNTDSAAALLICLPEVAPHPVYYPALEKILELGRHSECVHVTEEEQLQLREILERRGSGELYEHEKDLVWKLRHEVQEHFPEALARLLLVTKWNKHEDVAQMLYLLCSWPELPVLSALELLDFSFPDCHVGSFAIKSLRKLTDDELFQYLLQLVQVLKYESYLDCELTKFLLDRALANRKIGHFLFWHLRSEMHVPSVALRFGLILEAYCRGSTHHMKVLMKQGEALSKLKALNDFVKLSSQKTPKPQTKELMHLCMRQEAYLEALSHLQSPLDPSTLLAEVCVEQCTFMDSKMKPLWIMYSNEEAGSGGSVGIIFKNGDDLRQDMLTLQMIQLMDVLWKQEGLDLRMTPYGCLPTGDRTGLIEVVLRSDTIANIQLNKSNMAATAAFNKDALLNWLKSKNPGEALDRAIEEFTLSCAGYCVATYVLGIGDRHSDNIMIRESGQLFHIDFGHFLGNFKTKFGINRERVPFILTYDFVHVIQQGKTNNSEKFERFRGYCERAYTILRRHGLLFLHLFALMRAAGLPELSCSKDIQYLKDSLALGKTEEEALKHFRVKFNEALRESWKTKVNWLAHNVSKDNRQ

[18] = target: kinases (468) (Homo sapiens, UniProt Q9BUB5); details: MKNK1; 1000 nM
[19] = target: kinases (468) (Homo sapiens, UniProt Q8N5S9); details: CAMKK1; 1000 nM
[20] = target: kinases (468) (Homo sapiens, UniProt P06239); details: LCK; 1000 nM
kinases (468) (Homo sapiens, UniProt P06239), sequence (P06239 whole entry): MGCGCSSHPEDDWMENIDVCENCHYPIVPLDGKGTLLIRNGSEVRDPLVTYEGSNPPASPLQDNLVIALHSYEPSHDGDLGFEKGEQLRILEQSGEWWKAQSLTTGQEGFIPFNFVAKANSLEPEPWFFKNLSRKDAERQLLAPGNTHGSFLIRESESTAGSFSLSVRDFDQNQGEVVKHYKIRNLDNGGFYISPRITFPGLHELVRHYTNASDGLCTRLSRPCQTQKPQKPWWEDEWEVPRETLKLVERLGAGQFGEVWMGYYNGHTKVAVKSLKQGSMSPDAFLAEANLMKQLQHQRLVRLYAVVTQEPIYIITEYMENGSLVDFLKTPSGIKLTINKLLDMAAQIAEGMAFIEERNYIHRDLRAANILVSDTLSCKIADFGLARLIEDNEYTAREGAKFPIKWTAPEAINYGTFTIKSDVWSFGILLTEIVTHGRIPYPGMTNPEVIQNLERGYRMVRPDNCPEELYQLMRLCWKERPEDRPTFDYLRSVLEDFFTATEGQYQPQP

[21] = target: kinases (468) (Homo sapiens, UniProt P11802); details: 1000 nM
kinases (468) (Homo sapiens, UniProt P11802), sequence (P11802 whole entry): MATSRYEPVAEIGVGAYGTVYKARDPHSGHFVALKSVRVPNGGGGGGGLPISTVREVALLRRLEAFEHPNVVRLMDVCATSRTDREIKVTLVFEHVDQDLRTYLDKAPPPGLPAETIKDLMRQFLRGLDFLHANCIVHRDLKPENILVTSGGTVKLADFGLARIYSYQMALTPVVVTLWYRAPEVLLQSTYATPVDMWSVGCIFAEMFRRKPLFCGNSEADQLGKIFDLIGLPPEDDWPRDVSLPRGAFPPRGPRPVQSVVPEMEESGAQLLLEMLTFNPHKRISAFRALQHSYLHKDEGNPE

[22] = target: kinases (468) (Homo sapiens, UniProt Q09013); details: DMPK; 1000 nM
kinases (468) (Homo sapiens, UniProt Q09013), sequence (Q09013 whole entry): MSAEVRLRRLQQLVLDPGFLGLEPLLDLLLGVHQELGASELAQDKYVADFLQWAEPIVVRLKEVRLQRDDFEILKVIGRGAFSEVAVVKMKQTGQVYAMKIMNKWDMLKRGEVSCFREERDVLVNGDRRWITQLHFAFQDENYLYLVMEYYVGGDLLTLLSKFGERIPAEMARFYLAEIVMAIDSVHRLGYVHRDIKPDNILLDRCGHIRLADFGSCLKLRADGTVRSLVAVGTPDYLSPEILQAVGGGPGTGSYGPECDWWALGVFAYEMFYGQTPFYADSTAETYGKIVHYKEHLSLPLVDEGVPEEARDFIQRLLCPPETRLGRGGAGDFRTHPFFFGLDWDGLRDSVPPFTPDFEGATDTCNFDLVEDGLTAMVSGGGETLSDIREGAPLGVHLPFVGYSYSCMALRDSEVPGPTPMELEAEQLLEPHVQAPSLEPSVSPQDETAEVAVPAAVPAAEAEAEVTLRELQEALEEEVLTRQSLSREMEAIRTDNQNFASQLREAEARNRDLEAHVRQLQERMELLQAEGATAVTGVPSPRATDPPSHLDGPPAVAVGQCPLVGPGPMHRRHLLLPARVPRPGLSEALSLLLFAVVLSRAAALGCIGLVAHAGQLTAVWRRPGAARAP

[23] = target: kinases (468) (Homo sapiens, UniProt Q00532); details: CDKL1; 1000 nM
[24] = target: kinases (468) (Homo sapiens, UniProt P54753); details: EPHB3; 1000 nM
[25] = target: kinases (468) (Homo sapiens, UniProt P48729); details: CSNK1A1; 1000 nM
kinases (468) (Homo sapiens, UniProt P48729), sequence (P48729 whole entry): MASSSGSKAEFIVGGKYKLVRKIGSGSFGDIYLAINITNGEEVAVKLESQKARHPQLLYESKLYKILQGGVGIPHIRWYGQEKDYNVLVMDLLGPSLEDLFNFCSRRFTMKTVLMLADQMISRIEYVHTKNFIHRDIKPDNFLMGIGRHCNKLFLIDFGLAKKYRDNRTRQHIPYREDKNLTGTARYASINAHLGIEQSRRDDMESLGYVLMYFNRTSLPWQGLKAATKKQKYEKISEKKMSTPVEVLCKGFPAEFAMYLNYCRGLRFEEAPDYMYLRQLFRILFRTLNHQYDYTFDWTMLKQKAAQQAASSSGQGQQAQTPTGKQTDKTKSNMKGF

[26] = target: kinases (468) (Homo sapiens, UniProt P00519, E255K); details: ABL1(E255K)-phosphorylated; 1000 nM
[27] = target: kinases (468) (Homo sapiens, UniProt P78362); details: kinase SRPK2 (Entrez SRPK2); compound concentration 1000 nM
[28] = target: kinases (468) (Homo sapiens, UniProt Q00537); details: PCTK2 (CDK17); 1000 nM
[29] = target: kinases (468) (Homo sapiens, UniProt Q99640); details: PKMYT1; 1000 nM
[30] = target: kinases (468) (Homo sapiens, UniProt P48730); details: CSNK1D; 1000 nM
[31] = target: kinases (468) (Homo sapiens, UniProt Q13237); details: PRKG2; 1000 nM
[32] = target: kinases (468) (Homo sapiens, UniProt O60331); details: PIP5K1C; 1000 nM
[33] = target: kinases (468) (Homo sapiens, UniProt P00533, DEL746-750); details: EGFR(E746-A750del); 1000 nM
[34] = target: kinases (468) (Homo sapiens, UniProt Q9UKI8); details: kinase TLK1 (Entrez TLK1); compound concentration 1000 nM
[35] = target: kinases (468) (Homo sapiens, UniProt Q9H0K1); details: kinase SIK2 (Entrez SIK2); compound concentration 1000 nM

C[C@H]1C[C@@H](O)CN(c2ncc(Cl)c(Nc3ccc4c(c3)c3c(c(=O)n4C)OCC(F)(F)[C@H](C4CC4)N3)n2)C1 [CCT373566_9A]
Percent Control [1]: 87%
Percent Control [2]: 100%
Percent Control [3]: 100%
Percent Control [4]: 100%
Percent Control [5]: 91%
Percent Control [6]: 92%
Percent Control [7]: 96%
Percent Control [8]: 100%
Percent Control [9]: 96%
Percent Control [10]: 92%
Percent Control [11]: 96%
Percent Control [12]: 82%
Percent Control [13]: 95%
Percent Control [14]: 93%
Percent Control [15]: 85%
Percent Control [16]: 100%
Percent Control [17]: 90%
Percent Control [18]: 91%
Percent Control [19]: 99%
Percent Control [20]: 100%
Percent Control ([21]; CDK4-cyclinD1): 94%
Percent Control ([21]; CDK4-cyclinD3): 95%
Percent Control ([21]; CDK4): 100%
Percent Control [22]: 98%
Percent Control [23]: 97%
Percent Control [24]: 100%
Percent Control [25]: 100%
Percent Control [26]: 99%
Percent Control [27]: 100%
Percent Control [28]: 95%
Percent Control [29]: 100%
Percent Control [30]: 99%
Percent Control [31]: 100%
Percent Control [32]: 91%
Percent Control [33]: 100%
Percent Control [34]: 87%
Percent Control [35]: 98%
